Test results from patent US20200224136A1, “INTESTINE-CHIP: DIFFERENTIAL GENE EXPRESSION MODEL” (priority 2019, published 2020).
Where two headings read alike, the source gives them in different places.

Key:
[1] = target: T1, MDR1 (P-gp) (Homo sapiens, UniProt P08183); conditions: 22 μM
Protocol: (§1) To evaluate the applicability of this system for the studies of pharmacology related questions we assessed the presence and localization of major intestinal drug transporters in Duodenum-Chips established from the tissue of 3 different donors by qRT-PCR and immunofluorescent imaging.
(§2) The transporter activity of MDR-1/P-gp was assessed using the MDR1 Efflux Assay Kit (e.g., ECM910, Millipore), as per manufacturer's instructions. […] Intracellular accumulation of dye, was detected by fluorescent imaging (Olympus IX83) and measured in the presence and absence of MDR-1 specific inhibitor vinblastine (22 μM). At least three independent experiments were performed for Caco2 Intestine-Chips and Duodenum-Chips, each using chips established from a different donor of biopsy-derived organoids. At least three different chips were used per condition, images of each were taken at three different fields of view, digitally processed and quantified using Fiji software.

[2] = target: T1, MDR1 (P-gp); conditions: 22 μM; remark: listed apart in the source
Protocol: as §1, §2

[3] = target: T2, human CAR (hCAR) (Homo sapiens, UniProt Q14994); conditions: cited from earlier work
T2 sequence (Q14994 1-352): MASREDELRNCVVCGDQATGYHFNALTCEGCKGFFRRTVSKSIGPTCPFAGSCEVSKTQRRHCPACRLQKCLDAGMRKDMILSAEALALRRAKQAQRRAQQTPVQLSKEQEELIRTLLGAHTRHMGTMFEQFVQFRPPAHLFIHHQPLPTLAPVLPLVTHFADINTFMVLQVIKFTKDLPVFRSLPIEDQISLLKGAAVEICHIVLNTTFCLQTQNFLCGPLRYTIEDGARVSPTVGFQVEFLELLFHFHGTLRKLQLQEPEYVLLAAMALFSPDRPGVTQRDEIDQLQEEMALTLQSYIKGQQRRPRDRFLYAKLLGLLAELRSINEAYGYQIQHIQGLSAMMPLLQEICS

[4] = target: T3, mouse CAR (mCAR) (Mus musculus, UniProt O35627); conditions: cited from earlier work
T3 sequence (O35627 1-358): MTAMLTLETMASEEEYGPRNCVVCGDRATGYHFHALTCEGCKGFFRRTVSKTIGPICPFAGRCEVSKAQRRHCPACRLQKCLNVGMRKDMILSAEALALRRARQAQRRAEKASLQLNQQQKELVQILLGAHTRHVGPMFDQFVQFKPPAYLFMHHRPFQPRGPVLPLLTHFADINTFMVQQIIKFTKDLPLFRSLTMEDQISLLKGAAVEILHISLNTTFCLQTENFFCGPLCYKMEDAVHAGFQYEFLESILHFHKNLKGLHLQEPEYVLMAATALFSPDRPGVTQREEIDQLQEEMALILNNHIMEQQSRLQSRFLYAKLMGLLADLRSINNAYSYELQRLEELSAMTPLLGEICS

[5] = system: Caco-2 cell monolayers; conditions: cited from earlier work
[6] = system: Colon Intestine-Chip; experiment: Barrier disruption/rescue assay in organoid-derived Colon Intestine-Chip (apparent permeability, 3 kDa dextran); type: cell-based, human
Protocol: As one example, to evaluate the integrity of the intestinal barrier 3 kDa Cascade Blue dextran (Sigma, D7132) was added to the epithelial compartment of the Duodenum-Chip at 0.1 mg/ml on the day of connecting a microfluidic device to flow, e.g., see exemplary timelines. Effluents of the endothelial compartment were sampled 3 hours after the addition of a dye, up to 24 hours, up to 48 hours, up to 72 hours, or at 48 hour intervals until the end of the assay, in order to determine the concentration of dye that has diffused through the membrane.
The apparent paracellular permeability (Papp) was calculated based on a standard curve and using the following formula: […]
In some embodiments, a microfluidic device as described herein, is used for an in vitro assay for evaluating a substance for its ability or efficacy of ‘rescuing’ barrier function. In some embodiments, a human intestine chip is used for an in vitro assay for evaluating a substance for ‘rescuing’ barrier function. In some embodiments, a human intestine chip is an organoids-derived colonic intestine chip. In some embodiments, Organoids-derived Colonic Epithelial Cells are seeded into one channel with Intestinal Microvascular Endothelial Cells seeded into an opposing channel separated by a membrane, as described herein. After seeding cells on Day 0, flow was initiated on Day 1 with stretch initiated on Day 2.
The following is an exemplary timeline for one embodiment of a Barrier Disruption/Rescue Assay, e.g. rescuing 3 hours of injury by a peptide substance, e.g. AT1002 (synthetic peptide H-FCIGRL-OH of ZO toxin) with AT1001, larzaride acetate. Day −5: experiment preparation (prep), as described herein; Day 0: Intestine chip seeding both cells types, epithelial and endothelial; Day 1 starting flow; Day 2 starting stretch, in some embodiments starting […] at lower levels then increasing up to 10% over 24 hours (1 day), over 2 days, or over 3 days; Day 5; starting Injury/Rescue Assay: using a known reversible injury inducing substance: Injure period starting at 0 hour continuing up to 3 hours, or more. Day 6 first readout time point (24 hours); Day 7, in some embodiments, Fix cells at 48 hours post injury; Days 7-21, in some embodiments, initiate at least one Endpoint Assay for analysis; and in some embodiments Day 21 is a report-out of assay. Exemplary check timepoints for readouts: 0, 24 and 48 hours after initiation of injury inducing substance. In some embodiments, Endpoint Assays and Analysis are done on Day 14. In some embodiments, Endpoint Assays and Analysis are done on Day 21. In some embodiments, a test substance for ‘rescuing’ damage may be evaluated within 14 days. In some embodiments, a test substance for ‘rescuing’ damage may be evaluated within 21 days from the beginning of cell culturing. […]

[7] = system: Mixed primary murine intestinal cultures; conditions: 3 uM, 2 hours, GLP-1 active ELISA kit, Millipore, cited from earlier work
[8] = system: Colon-Chip; experiment: IL-13 mediated enrichment of tuft cells in Colon-Chip; type: cell-based, human; conditions: 10 ng/ml
Protocol: Stimulation: Exposure of Colon-Chips and ileal and colonic organoids (serve as a control) to 10 ng/ml of IL-13.
Read-outs: mRNA expression of genes specific for Tuft cells: Trpm5, ChAT, Dclkl and for goblet cells: Muc2, TFF3, etc., (to assess concomitant expansion of goblet cell populations) at day 2, 3 and 6 post-treatment corresponding to day 4, 5 and 8 of Colon-Chip culture.
IL-13 treatment has no negative impact of Colon-Chip tissue morphology and barrier function.
Summary of IL-13 mediated enrichment of the tuft cells in Colon-Chip. […] We performed stimulation of Colon-Chips with IL-13 in order to drive tuft cell differentiation and enrich for the presence of these cells in Intestine-Chip platform. […] In some embodiments, Gene expression levels of Tuft cell (Trpm5, ChAT) and goblet cell (Muc2, TFF3) specific markers are evaluated.

[9] = system: CYP3A4
[10] = system: CYP3A4; remark: listed apart in the source
[11] = target: T4, mouse PXR (mPXR) (Mus musculus, UniProt O54915); conditions: cited from earlier work
T4 sequence (O54915 1-431): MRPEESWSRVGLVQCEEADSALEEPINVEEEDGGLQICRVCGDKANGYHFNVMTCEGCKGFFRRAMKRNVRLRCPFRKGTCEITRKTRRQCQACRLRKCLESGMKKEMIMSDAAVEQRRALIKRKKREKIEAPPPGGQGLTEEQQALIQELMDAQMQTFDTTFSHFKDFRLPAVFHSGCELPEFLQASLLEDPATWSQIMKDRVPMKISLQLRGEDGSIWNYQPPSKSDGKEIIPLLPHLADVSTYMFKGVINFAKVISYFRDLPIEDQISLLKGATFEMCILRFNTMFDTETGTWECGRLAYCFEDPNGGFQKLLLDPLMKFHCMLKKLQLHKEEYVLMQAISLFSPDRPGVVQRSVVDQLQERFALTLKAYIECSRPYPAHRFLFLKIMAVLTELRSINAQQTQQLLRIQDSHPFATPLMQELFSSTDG

[12] = target: T5, human PXR (hPXR) (Homo sapiens, UniProt O75469); conditions: cited from earlier work
T5 sequence (O75469 1-434): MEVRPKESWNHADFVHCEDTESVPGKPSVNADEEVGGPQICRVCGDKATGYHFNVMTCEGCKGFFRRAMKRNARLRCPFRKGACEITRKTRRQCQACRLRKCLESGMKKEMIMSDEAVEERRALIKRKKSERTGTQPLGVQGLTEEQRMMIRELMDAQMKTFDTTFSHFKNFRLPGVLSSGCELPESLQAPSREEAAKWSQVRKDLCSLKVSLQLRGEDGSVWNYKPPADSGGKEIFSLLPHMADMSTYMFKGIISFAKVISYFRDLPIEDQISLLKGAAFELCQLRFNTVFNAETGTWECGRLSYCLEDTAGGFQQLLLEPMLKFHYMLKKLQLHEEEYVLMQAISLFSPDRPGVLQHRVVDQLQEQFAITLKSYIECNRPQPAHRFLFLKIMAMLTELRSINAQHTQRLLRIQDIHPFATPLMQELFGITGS

T1 sequence (P08183 whole entry): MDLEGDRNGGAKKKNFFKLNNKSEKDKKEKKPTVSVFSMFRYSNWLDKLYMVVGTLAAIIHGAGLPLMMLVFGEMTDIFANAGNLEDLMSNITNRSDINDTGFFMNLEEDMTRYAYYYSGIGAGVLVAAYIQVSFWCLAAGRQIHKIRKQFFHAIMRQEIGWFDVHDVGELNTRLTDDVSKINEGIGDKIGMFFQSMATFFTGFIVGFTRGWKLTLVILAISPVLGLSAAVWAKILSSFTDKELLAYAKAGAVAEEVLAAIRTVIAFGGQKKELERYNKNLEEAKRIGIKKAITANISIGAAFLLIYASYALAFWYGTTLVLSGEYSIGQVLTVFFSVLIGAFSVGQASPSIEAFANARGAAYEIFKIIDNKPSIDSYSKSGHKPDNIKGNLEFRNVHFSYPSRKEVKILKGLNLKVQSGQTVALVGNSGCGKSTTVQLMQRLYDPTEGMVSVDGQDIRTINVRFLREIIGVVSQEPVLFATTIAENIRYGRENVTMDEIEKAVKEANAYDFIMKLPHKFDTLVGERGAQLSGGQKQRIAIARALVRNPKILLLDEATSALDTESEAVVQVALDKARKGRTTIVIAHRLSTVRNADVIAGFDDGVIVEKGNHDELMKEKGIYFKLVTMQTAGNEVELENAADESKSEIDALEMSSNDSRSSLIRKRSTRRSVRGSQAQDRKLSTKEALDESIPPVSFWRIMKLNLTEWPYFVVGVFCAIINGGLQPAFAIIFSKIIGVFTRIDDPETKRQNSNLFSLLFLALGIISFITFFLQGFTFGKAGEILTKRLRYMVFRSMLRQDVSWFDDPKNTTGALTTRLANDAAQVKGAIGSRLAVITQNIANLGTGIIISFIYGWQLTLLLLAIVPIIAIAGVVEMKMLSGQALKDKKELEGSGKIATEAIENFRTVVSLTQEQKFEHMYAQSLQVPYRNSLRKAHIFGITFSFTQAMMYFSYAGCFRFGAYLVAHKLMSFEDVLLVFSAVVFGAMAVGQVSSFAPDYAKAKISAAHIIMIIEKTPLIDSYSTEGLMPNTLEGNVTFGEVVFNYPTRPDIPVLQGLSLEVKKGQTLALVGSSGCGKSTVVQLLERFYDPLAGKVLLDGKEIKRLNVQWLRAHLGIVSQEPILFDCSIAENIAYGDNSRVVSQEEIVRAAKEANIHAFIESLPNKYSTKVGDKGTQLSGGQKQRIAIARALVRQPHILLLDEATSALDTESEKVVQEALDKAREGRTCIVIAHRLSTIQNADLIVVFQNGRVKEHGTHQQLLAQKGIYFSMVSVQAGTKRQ

## CC[C@]1(O)C[C@@H]2CN(CCc3c([nH]c4ccccc34)[C@@](C(=O)OC)(c3cc4c(cc3OC)N(C)[C@H]3[C@@](O)(C(=O)OC)[C@H](OC(C)=O)[C@]5(CC)C=CCN6CC[C@]43[C@@H]65)C2)C1 [vinblastine]
[1]
  increase in intracellular accumulation of rhodamine 123: 1.84 fold
[2]
  increase in intracellular accumulation of rhodamine 123: 2.14 fold

## Clc1ccc(-c2nc3sccn3c2C=NOCc2ccc(Cl)c(Cl)c2)cc1 [CITCO, 6-(4-chlorophenyl)imidazo[2,1-b][1,3]thiazole-5-carbaldehyde-O-(3,4-dichlorobenzyl)oxime]
[3]
  agonism at human CAR: strong agonist
[4]
  agonism at mouse CAR: not mouse CAR

## Larazotide acetate
[5]; apically applied
  increase in TJ permeability elicited by basolaterally applied cytokines: inhibited
[6]; 12.5 mM, IFN-gamma 25 ng/ml, 3 KDa Dextran Texas Red, N=5
  restoration of barrier integrity/function injured by IFN-gamma: partially restored/rescued
[6]; Colon Intestine-Chip exposed to AT1002, 20 mM, after 24 hours, N=5
  restore/rescue of barrier integrity: up to 100%

## Cc1onc(-c2ccccc2Cl)c1C(=O)N(C)c1ccc(Cl)cc1 [GPBAR-A]
[7]; in the presence of 10 mM glucose
  GLP-1 Concentration (fold increase) in the presence of 10 mM glucose: 3.5 fold increase
[7]
  GLP-1 Concentration (fold increase): 2.5 fold increase

## H-FCIGRL-OH [AT1002]
[5]; Caco-2 cell monolayers
  lucifer yellow permeability: increase
  transepithelial electrical resistance (TEER): reversible reduction
[5]
  cytotoxicity: no overt cytotoxicity
[6]; organoid-derived colon chip
  injury effect on barrier (apparent permeability, 3 KDa Dextran Cascade Blue): barrier disruption in a concentration-dependent manner

## IL-13: cytokine used to drive tuft cell differentiation
[8]
  effect on Colon-Chip morphology and barrier function: no negative effect
  tuft cell population: Enrichment

## C=C1/C(=C\C=C2/CCC[C@]3(C)[C@@H]([C@H](C)CCCC(C)(C)O)CC[C@@H]23)C[C@@H](O)C[C@@H]1O [VD3, 1,25-dihidroxyvitamin D3]
[9]; Caco-2 Intestine-Chip
  CYP3A4 induction (in words): induced
  metabolic activity of CYP3A4: no effect
[9]; Caco-2 Intestine-Chip, listed as Vitamin D3
  CYP3A4 induction (in words): showed induction
[9]; Caco-2 cells after inducer treatment
  CYP3A4 protein level (Western Blot): below the limit of detection
[9]; Caco-2 cells, 100 nM, 48 h
  enhancement of CYP3A4 mRNA level: 316 fold
[10]; Duodenum Intestine-Chip
  CYP3A4 drug metabolism activity: significantly increased
  CYP3A4 protein levels: significantly increased
[10]; Duodenum-Chip, average of 3 donors, 20 μM RIF or 100 nM VD3, 48 h
  induction of CYP3A4 expression relative to DMSO-treated controls: 4.1 fold

## Clc1cnc(Oc2ccc(Oc3ncc(Cl)cc3Cl)cc2)c(Cl)c1 [TCPOBOP, 1,4-bis-[2-(3,5-dichloropyridyloxy)]benzene,3,3′.5.5′-tetrachloro-1,4-bis(pyridyloxy)benzene]
[4]
  selectivity mCAR versus hCAR: more selective for mCAR than hCAR

## IFN-gamma: injury inducing cytokine
[6]; 10 ng/ml - 50 ng/ml, 48 hours, 3 KDa Dextran Cascade Blue
  permeability of Colon Intestine Chip: increases post 48 hours independent of IFN-gamma concentrations tested

## CCOP(=O)(OCC)C(=Cc1cc(C(C)(C)C)c(O)c(C(C)(C)C)c1)P(=O)(OCC)OCC [SR12813]
[11]
  agonism at mouse PXR: not for mouse PXR

## CC(=O)[C@H]1[C@H](C#N)C[C@H]2[C@@H]3CC=C4C[C@@H](O)CC[C@]4(C)[C@H]3CC[C@@]21C [PCN, 5-pregnen-3β-ol-20-one-16α-carbonitrile]
[12]
  agonism at human PXR: poor agonist
[11]
  agonism at mouse PXR: potent mPXR agonist
